Experimental data published in patent US5604206A, “Complexes containing S(+) phenyl alkane acids and amino sugars” (priority 1990, dated 1997).

Experiments:
[1] = Pharmacokinetics after a single oral dose in test persons (Table 1)
Source text: (§1) Pharmacokinetic parameters after taking a (single) oral
(§2) ibuprofen active substance) (4 test persons)

clinical = settings: human, in vivo, po
Source text: as §1, §2

[2] = single oral dose, tablet, 150 mg ibuprofen active substance, 4 test persons, Mean ± SD

**Q.** With `CC(C)Cc1ccc([C@H](C)C(=O)O)cc1` [S(+)-ibuprofen free acid, S(+)-ibuprofen, reference compound] as the molecule, how does the tlag [1, 2] read?
**A.** 0.50 ± 0.1 h

**Q.** What about the tmax (clinical) of the same molecule?
**A.** 2.1 ± 0.2 h

**Q.** Which “tmax (rapid onset effect)” value ([1]; 150 mg active substance) does the source give for `CC(C)Cc1ccc([C@H](C)C(=O)O)cc1.CNC[C@H](O)[C@@H](O)[C@H](O)[C@H](O)CO` [Sugar complex, S(+)-ibuprofen-N-methyl-2-deoxy-glucitol] here?
**A.** 0.25 to 0.333 h

**Q.** And the AUC [1, 2]?
**A.** 55000 ± 10200 ng·h/mL

**Q.** And the Cmax [1, 2]?
**A.** 24500 ± 6700 ng/mL

**Q.** What about the tlag [1, 2] of the same molecule?
**A.** 0.1 ± 0.02 h

**Q.** What about the tmax [1, 2] of the same molecule?
**A.** 0.25 ± 0.11 h
